Patent publication US20070269503A1, “Combinations of HMG CoA reductase inhibitors and negatively charged phospholipids and uses thereof” (priority 2006, published 2007)
Read-outs that look alike come from different tables or passages of the source.

Tests used:
[1] = tested on: HepG2 cells; conditions: cited from earlier work
[2] = normocholesterolemic male Sprague-Dawley rats; 5.5% by weight of rat chow, approximately 4 g/Kg body weight; cited from earlier work
[3] = Oral PI, plasma HDL cholesterol and apoA-I; type: in vivo; conditions: conventional formulations, about 5.6 g/day
Excerpt: The efficacy of orally administered phosphatidyl-inositol(PI) for raising plasma HDL cholesterol and apoA-I levels can be improved considerably (e.g. 2- to 8-fold) by combining PI with an intestinal absorption enhancer (IAE) (U.S. patent application Ser. No. 60/684212, herein incorporated by reference).

[4] = oral PI combined with an intestinal absorption enhancer (IAE); cited from earlier work

Compound: CC(C)c1c(C(=O)Nc2ccccc2)c(-c2ccccc2)c(-c2ccc(F)cc2)n1CC[C@@H](O)C[C@@H](O)CC(=O)O [atorvastatin]
- inhibition of cholesterol synthesis ([1]; concentrations between 0.01 to 10 μM): 45-65%

Compound: Phosphatidic acid [PA]
- decrease in plasma triglycerides [2]: about 40%
- increase in HDL cholesterol [2]: about 2 fold

Compound: phosphatidylinositol [PI]
- increase in apoA-I [3]: ~10%
- increase in plasma HDL cholesterol [3]: ~20%
- improvement of efficacy for raising plasma HDL cholesterol and apoA-I levels [4]: 2- to 8 fold
- inhibition of cholesterol synthesis ([1]; 11.7 μM): 50%
